Measurements from US8901110B2, “Use of biomarkers in methods for the treatment of hepatocellular carcinoma” (Celgene Corporation, priority 2012, dated 2014).

How the values were obtained:
[1] = system: FOCUS cell line (poorly differentiated HCC cell line); experiment: Wound healing assay, FOCUS cell line; type: cell-based; conditions: FIG. 7
Description: (§1) 1. Cell seeding: A grid on the underside of the plate (60 mm) was drawn according to the paper diagram. Cells were seeded on 60 mm dish (aimed for confluent cells).
(§2) 2. Scratch wound: Using a tip (green), a scratch wound was made. The locations of the wounds were recorded by drawing on a paper. SF DMEM+trypsin aliquot was retrieved from the incubator, and the media/floating cells from the dish was aspirated. Cells were washed with DMEM+Trypsin to remove cells that have not been completely scratched away from the wound. Then the dish was filled with 4 ml of 10% FBS DMEM.
(§3) 3. Taking photographs: The marker was included on the top of the image frame so the same wound area can be kept track of. Then pictures of those wounds for the indicated time points were taken. Results were expressed as percentage of wound closure, as an index of cell migration, normalized to the initial width.
In another set of experiments, the effects of LM and Compound A on HCC cell migration were assessed using wound healing assay in FOCUS cell line (poorly differentiated HCC cell line).

[2] = system: Focus cells (poorly differentiated HCC cell line); experiment: Cell migration assay (migration chamber), Focus cell line; type: cell-based
Description: (§4) Focus and Hub7 cells were treated with 10 μM of LM in DMSO or DMSO as a control for 24 hrs. The cells were transferred in a migration chamber (BD Biosciences). The lower chamber was filled with 10% FBS-containing medium as a chemoattractant and was separated from the upper chamber by a 8 μm pore membrane. After 16 hrs, the remaining cells in the upper chamber (non-migrated cells) were removed and the cell attached to the bottom of the membrane (migrated cells) were stained with crystal violet and counted using Stereologer (SRC) in 10 different fields of the membrane.
(§5) In another set of experiments, the effects of LM and Compound A on HCC cell migration and invasion were assessed using procedures similar to those described above using FOCUS cell line (poorly differentiated HCC cell line).

[3] = system: HAK-1A cell line (well differentiated HCC cell line); experiment: Cell migration assay (migration chamber), HAK-1A cell line; type: cell-based; conditions: FIG. 3
[4] = system: TCF-4J isoform dependent target genes; experiment: qRT-PCR of TCF-4J responsive target genes in xenograft tumors; type: in vivo, mice; conditions: for mRNA expression: HAK1A-J xenograft models, legend of FIG. 22, genes not named
Description: Effects of LM and Compound A on expression of TCF-4J responsive target genes in HAK-1A xenograft tumors were assessed by measuring mRNA expression levels of TCF-4J isoform dependent target genes in xenograft tumors treated with LM, Compound A and control vehicle. The following procedures were used: Total RNA was extracted from tumors using TRIzol Reagent, and reverse transcription was performed with First Strand cDNA Synthesis Kit for RT-PCR (AMV). Quantitative real-time PCR was carried out on a Mastercycler ep realplex instrument and software, using SYBR Green PCR reagents. Relative quantification was performed using ΔΔCt method, normalizing to 18S rRNA. Dissociation curves were generated to evaluate PCR product specificity and purity.

TCF-4 = experiment: Western blot of nuclear TCF-4 expression after LM treatment; type: cell-based; conditions: 10 μM, 24 hrs; poorly-differentiated cells (Focus); normalized by lamin; FIG. 1
Description: Focus and Hub7 cells were treated with 10 μM of lenalidomide (“LM”) in DMSO or DMSO as a control for 24 hrs. Nuclear and cytosolic proteins were separately extracted and the expression of TCF-4 was analyzed by western blot. Nuclear expression of both long and short isoforms of TCF-4 was qualified using ImageJ (NIH) and normalized by expression of lamin.

HAK1A-J xenograft [5] = experiment: HAK1A-J xenograft models (tumor volume); type: in vivo; conditions: male mice; compared with control or LM treated mice; FIG. 21
Description: Effects of LM and Compound A in HAK1A-J xenograft models were examined using 50 male mice 4 weeks of age. Anti-tumor effects of LM and Compound A were assessed following the xenograft by measuring tumor volume after the treatment by the drugs.

[6] = system: HAK-1A cell line (well differentiated HCC cell line); experiment: Wound healing assay, HAK-1A cell line; type: cell-based; conditions: FIG. 6
Description: In another set of experiments, the effects of LM and Compound A on HCC cell migration were assessed using wound healing assay in HAK-1A cell line (well differentiated HCC cell line). The following procedures were used.
as §1, §2, §3

HAK1A-J xenograft [7] = experiment: HAK1A-J xenograft models, pilot study (tumor volume); type: in vivo, mice; conditions: compared with control, FIG. 19
Description: Effects of LM and Compound A in HAK1A-J xenograft models were examined in a pilot study using 5 animals (mice). Anti-tumor effects of LM and Compound A were assessed following the xenograft by measuring tumor volume after the treatment by the drugs.

[8] = system: Focus cells (poorly differentiated HCC cell line); experiment: Cell invasion assay (Matrigel-coated chamber), Focus cell line; type: cell-based
Description: (§6) Focus and Hub7 cells were treated with 10 μM of LM in DMSO or DMSO as a control for 24 hrs. The cells were transferred in a migration chamber coated with Matrigel (BD Biosciences). After 16 hrs, invasive cells attached to the bottom of the membrane were stained/counted and normalized by the number of migrative cells in a corresponding non-coated migration chamber.
as §5

[9] = system: HAK-1B cell line (poorly differentiated HCC cell line); experiment: Cell migration assay (migration chamber), HAK-1B cell line; type: cell-based; conditions: FIG. 4
Description: as §4
(§7) In another set of experiments, the effects of LM and Compound A on HCC cell migration and invasion were assessed using procedures similar to those described above, except that HAK-1B cell line (poorly differentiated HCC cell line) was employed.

[10] = system: HCC cell lines Huh7, FOCUS, HAK-1A and HAK-1B; experiment: MTS assay (cytotoxicity); type: cell-based; conditions: 24 or 72 hours; FIG. 17
Description: MTS assay was performed to evaluate the toxicity of Compound A for HCC cell lines Huh7, FOCUS, HAK-1A and HAK-1B. Compound A, at various concentrations ranging from […], was incubated with the specified cells for 24 or 72 hours.

[11] = system: HAK-1B cell line (poorly differentiated HCC cell line); experiment: Cell invasion assay (Matrigel-coated chamber), HAK-1B cell line; type: cell-based; conditions: HAK-1B (printed HAK-1AB), FIG. 4
Description: as §6, §7

[12] = system: HAK-1B cell line (poorly differentiated HCC cell line); experiment: Wound healing assay, HAK-1B cell line; type: cell-based; conditions: FIG. 8
Description: as §1, §2, §3
In another set of experiments, the effects of LM and Compound A on HCC cell migration were assessed using wound healing assay in HAK-1B cell line (poorly differentiated HCC cell line).

[13] = another set of experiments, FOCUS, poorly differentiated, FIG. 5
[14] = xenograft tumors, ΔΔCt, normalized to 18S rRNA, FIG. 22

Compound	cell migration (wound closure) [1]	cell migration [2, 13]	cell migration [3]	mRNA expression [4]	tumor volume (HAK1A-J xenograft [5])	cell migration (wound closure) [6]	tumor volume (HAK1A-J xenograft [7])	cell invasion [8, 13]	cell migration [9]	further results
Nc1cccc2c1CN(C1CCC(=O)NC1=O)C2=O (stereo not drawn) [LM, 1-oxo-2-(2,6-dioxopiperidin-3-yl)-4-aminoisoindoline, reference compound]	reduced cell migration	did not inhibit cell migration	did not affect the cell migration	reduction of mRNA expression	reduction of tumor volume was observed	did not affect the cell migration	significantly reduced the volume of tumors	inhibited cell invasion	inhibited cell migration	cell migration ([2]; 10 μM, 24 hrs, migrated cells counted after 16 hrs, Focus, FIG. 2): inhibited cell migration; TCF-4 expression, short and long forms (nuclear) (TCF-4): decreased; cell invasion ([8]; 10 μM, 24 hrs, invasive cells after 16 hrs, normalized by migrative cells, Focus, FIG. 2): inhibited cell invasion
Cc1nc2cccc(N)c2c(=O)n1C1CCC(=O)NC1=O (stereo not drawn) [Compound A, 3-(5-amino-2-methyl-4-oxo-4H-quinazolin-3-yl)-piperidine-2,6-dione]	reduced cell migration	did not inhibit cell migration	did not affect the cell migration	reduction of mRNA expression	much more significantly reduced the volume of tumors	did not affect the cell migration	significantly reduced the volume of tumors	inhibited cell invasion	inhibited cell migration	HCC cell proliferation [10]: no effect on HCC cell proliferation; mRNA level of ANXA1 [4, 14]: reduced; mRNA level of ASPH [4, 14]: reduced; mRNA level of CAMK2N1 [4, 14]: reduced; mRNA level of CLDN2 [4, 14]: reduced; mRNA level of GPR56 [4, 14]: reduced; mRNA level of JAG1 [4, 14]: reduced; cell invasion [11]: inhibited cell invasion; cell migration (wound closure) [12]: reduced cell migration
